Reference: EP4285895A1, “NITROFURANTOIN ORAL DOSAGE FORM” (Adalvo Limited, priority 2022, dated 2023)
Values after ≈ are worked out from the molar mass of the structure shown.

Assay: physchem

solubility (0.01N HCl, simulated gastric fluid): 140 µg/mL (≈ 588 µM)
solubility (0.1N HCl, simulated gastric fluid): 140 µg/mL (≈ 588 µM)
solubility (acetate buffer, pH 4.5, aqueous buffer): 50 µg/mL (≈ 210 µM)
solubility (phosphate buffer, pH 6.8, aqueous buffer): 200 µg/mL (≈ 840 µM)
solubility (phosphate buffer, pH 7.5, aqueous buffer): 620 µg/mL (≈ 2600 µM)
solubility (water): 160 µg/mL (≈ 672 µM)
SMILES: O=C1CN(N=Cc2ccc([N+](=O)[O-])o2)C(=O)N1 [Macrocrystals, 1-[[[5-nitro-2-furanyl]methylene]amino]-2,4-imidazolidinedione]
